Read-outs that look alike come from different tables or passages of the source.
How the values were obtained:
Format in all cases: cell-based
P. aeruginosa = assay: MIC panel of pathogens, Table 4; conditions: Pseudomonas aeruginosa
N. gonorrhoeae = assay: MIC panel of pathogens, Table 4; conditions: Neisseria gonorrhoeae
[1] = test system: S. aureus ATCC BAA-1717 (MRSA); assay: MIC against resistant strains, Tables 5a-5d; conditions: Staphylococcus aureus, n = 3
How it was run: (§1)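 MIC determination: resistant clinical strains tested by the same growth-inhibition protocol as susceptible species, or by equivalent procedures.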

[2] = test system: P. aeruginosa 1674623 (MDR); assay: MIC against resistant strains, Tables 5a-5d; conditions: Pseudomonas aeruginosa, n = 3
How it was run: as §1

[3] = test system: A. baumannii CDC0290 (MDR); assay: MIC against resistant strains, Tables 5a-5d; conditions: Acinetobacter baumannii, n = 3
How it was run: as §1

[4] = test system: S. aureus (MRSA) (clinical isolate); assay: MIC panel of pathogens, Table 4; conditions: Staphylococcus aureus, clinical isolate from Cottage Hospital
S. aureus (MSSA) = assay: MIC panel of pathogens, Table 4; conditions: Staphylococcus aureus
[5] = test system: primary human hepatocytes; assay: Cytotoxicity tested by Eurofins Pharma Discovery Services; conditions: Hepatocyte, data provided by Eurofins, read-out: IC50
[6] = test system: K pneumoniae (clinical isolate); assay: MIC panel of pathogens, Table 4; conditions: clinical isolate from Cottage Hospital
A. baumannii = assay: MIC panel of pathogens, Table 4; conditions: Acinetobacter baumannii
S. Typhimurium = assay: MIC panel of pathogens, Table 4; conditions: Salmonella enterica
HRPTEpiC = assay: Cytotoxicity tested by Eurofins Pharma Discovery Services; conditions: data provided by Eurofins, read-out: IC50
E. coli = assay: MIC panel of pathogens, Table 4; conditions: Escherichia coli
Description: (§2) The minimum inhibitory concentration (MIC) was determined according to the Clinical and Laboratory Standards Institute (CLSI) guidelines by broth dilution. […] MIC values were derived after 20 h incubation, and were the result of at least 6 independent determinations.

S. flexneri = assay: MIC panel of pathogens, Table 4; conditions: Shigella flexneri
Description: as §2

Cytotoxicity, MTT assay = conditions: at the concentration given as IC50 bound, read-out: cell viability at the highest or lowest test concentration
How it was run: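 Cells seeded at 5000/well (NIH 3T3) or 10000/well (Hep G2, J774, RAW264.7) in DMEM+10% FBS, incubated overnight, then exposed 24 h to 2-fold serial dilutions (9 concentrations, six replicates each). MTT added for 4 h, formazan dissolved in DMSO, A570 read. Viability expressed as blank-corrected absorbance relative to medium-only control.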

[7] = Cytotoxicity tested by Eurofins Pharma Discovery Services; conditions: human, Hep G2 cells; Hep G2, Eurofins; at the concentration given as IC50 bound; read-out: cell viability at the highest or lowest test concentration

Row | Compound | MIC (P. aeruginosa) | MIC (N. gonorrhoeae) | MIC [1] | MIC [2] | MIC [3] | MIC [4] | MIC (S. aureus (MSSA)) | IC50 [5] | MIC [6] | MIC (A. baumannii) | MIC (S. Typhimurium) | IC50 (HRPTEpiC) | MIC (E. coli) | MIC (S. flexneri) | viability at 24 h (Cytotoxicity, MTT assay; human, Hep G2 (ATCC HB-8065) cells, Hep G2) | viability at 24 h (Cytotoxicity, MTT assay; mouse, J774 (ATCC TIB-67) cells) | viability at 24 h (Cytotoxicity, MTT assay; mouse, NIH 3T3 (ATCC CRL-1658) cells, NIH 3T3) | viability [7]
1 | CCCCCC[N+](C)(C)CCCCCCOc1cc(/C=C/c2cc(OCCCCCC[N+](C)(C)CCCCCC)cc(OCCCCCC[N+](C)(C)CCCCCC)c2)cc(OCCCCCC[N+](C)(C)CCCCCC)c1 [Formula E] | 8 µg/mL | 0.5 µg/mL | 0.5 µg/mL | 8 µg/mL | 4 µg/mL | 1 µg/mL | 1 µg/mL | 13.2 µg/mL | 4 µg/mL | 4 µg/mL | 2 µg/mL | 2.6 µg/mL | 2 µg/mL | 2 µg/mL |  |  |  | 
2 | C[N+](C)(C)CCCCOc1cc(/C=C/c2ccc(/C=C/c3cc(OCCCC[N+](C)(C)C)cc(OCCCC[N+](C)(C)C)c3)cc2)cc(OCCCC[N+](C)(C)C)c1.[I-].[I-].[I-].[I-] [Formula F] |  |  | 2 µg/mL | > 64 µg/mL | 64 µg/mL |  |  | > 324 µg/mL |  |  |  | 79.2 µg/mL |  |  | 100% | 51% | 56.2% | 70%

From US11713318B2, “Short conjugated oligoelectrolytes and uses thereof” (The Regents Of The University Of California, priority 2018, dated 2023)
